In patent US20240425490A1, “SULFAMIDE RIBONUCLEOTIDE REDUCTASE (RNR) INHIBITORS AND USES THEREOF” (Boundless Bio, Inc., priority 2021, published 2024):

Target: T1, RNR (RNR1:RNR2 1:1) (Homo sapiens, UniProt P23921)
T1 sequence (P23921 1-792): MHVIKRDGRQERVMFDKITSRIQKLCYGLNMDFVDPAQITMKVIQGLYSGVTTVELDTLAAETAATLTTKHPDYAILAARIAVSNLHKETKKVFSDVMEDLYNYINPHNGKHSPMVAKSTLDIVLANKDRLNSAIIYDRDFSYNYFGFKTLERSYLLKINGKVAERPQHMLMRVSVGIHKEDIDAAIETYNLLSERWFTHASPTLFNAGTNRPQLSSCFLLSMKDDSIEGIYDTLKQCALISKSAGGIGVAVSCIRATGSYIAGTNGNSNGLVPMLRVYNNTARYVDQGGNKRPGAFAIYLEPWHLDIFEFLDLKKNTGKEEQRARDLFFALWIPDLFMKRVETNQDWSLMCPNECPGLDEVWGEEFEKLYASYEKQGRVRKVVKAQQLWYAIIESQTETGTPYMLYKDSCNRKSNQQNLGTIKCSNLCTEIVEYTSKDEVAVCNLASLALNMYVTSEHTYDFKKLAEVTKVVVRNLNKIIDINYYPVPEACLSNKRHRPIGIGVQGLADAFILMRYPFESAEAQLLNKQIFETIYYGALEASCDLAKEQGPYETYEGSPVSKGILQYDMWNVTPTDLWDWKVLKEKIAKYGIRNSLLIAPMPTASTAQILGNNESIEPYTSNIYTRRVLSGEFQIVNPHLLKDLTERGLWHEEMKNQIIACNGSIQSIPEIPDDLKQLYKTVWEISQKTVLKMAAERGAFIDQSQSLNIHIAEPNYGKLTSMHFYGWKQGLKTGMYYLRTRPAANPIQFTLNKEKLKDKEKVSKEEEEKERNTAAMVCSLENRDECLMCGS
Assay: RNR enzyme activity, rapid-fire mass spectrometry (RFMS) assay
Format: biochemical
Conditions: RNR 50 nM, CDP 5 μM, ATP 1 mM, 37° C., 45 min, compounds screened up to 50 μM, read-out: RF/MS IC50
Summary of the method: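 Human RNR1:RNR2 (1:1, 50 nM) pre-incubated 15 min at room temperature with compound, then reacted with 5 μM CDP and 1 mM ATP, no NADPH, for 45 min at 37 °C. Stopped with 6% HCOOH; turnover read by rapid-fire mass spectrometry; Triapine and hydroxyurea as reference compounds.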

Row | SMILES | IC50
1 | CC(=O)[C@@H]1CCCCN1S(=O)(=O)N[C@H](c1n[nH]c(=O)o1)[C@H](C)c1c(F)ccc(C)c1C [Example 17, (S)-2-acetyl-N-((1S,2R)-2-(6-fluoro-2,3-dimethylphenyl)-1-(5-oxo-4,5-dihydro-1,3,4-oxadiazol-2-yl)propyl)piperidine-1-sulfonamide] | 10 to 100 µM
2 | Cc1ccc(F)c([C@H](C)[C@H](NS(=O)(=O)N2CCC3(CC2)CC(F)(F)C3)c2n[nH]c(=O)o2)c1C [Example 95, 2,2-difluoro-N-((1S,2S)-2-(6-fluoro-2,3-dimethylphenyl)-1-(5-oxo-4,5-dihydro-1,3,4-oxadiazol-2-yl)propyl)-7-azaspiro[3.5]nonane-7-sulfonamide] | 1 to 10 µM
3 | Cc1ccc(F)c([C@@H](C)[C@H](NS(=O)(=O)N2CCCCC2C(=O)O)c2n[nH]c(=O)o2)c1C (stereo partly drawn) [Example 13, 1-(N-((1S,2R)-2-(6-fluoro-2,3-dimethylphenyl)-1-(5-oxo-4,5-dihydro-1,3,4-oxadiazol-2-yl)propyl)sulfamoyl)piperidine-2-carboxylic acid] | 10 to 100 µM
4 | CCN(CC1CC1)S(=O)(=O)N[C@H](c1n[nH]c(=O)o1)[C@@H](C)c1c(F)ccc(C)c1C [Example 120] | 10 to 100 µM
5 | Cc1ccc(F)c([C@H](C)[C@H](NS(=O)(=O)N2CC3CC3C2)c2n[nH]c(=O)o2)c1C (stereo partly drawn) [Example 104, N-((1S,2S)-2-(6-fluoro-2,3-dimethylphenyl)-1-(5-oxo-4,5-dihydro-1,3,4-oxadiazol-2-yl)propyl)-3-azabicyclo[3.1.0]hexane-3-sulfonamide] | 10 to 100 µM
6 | CCN(CC1CC1)S(=O)(=O)N[C@H](c1n[nH]c(=O)o1)[C@H](C)c1c(F)ccc(C)c1C [Example 118] | 1 to 10 µM
7 | Cc1ccc(F)c([C@@H](C)[C@H](NS(=O)(=O)N2CCCCC2c2ccccc2)c2n[nH]c(=O)o2)c1C (stereo partly drawn) [Example 35, N-((1S,2R)-2-(6-fluoro-2,3-dimethylphenyl)-1-(5-oxo-4,5-dihydro-1,3,4-oxadiazol-2-yl)propyl)-2-phenylpiperidine-1-sulfonamide] | 1 to 10 µM
8 | COC(=O)C1(C)CCN(S(=O)(=O)N[C@H](c2n[nH]c(=O)o2)[C@H](C)c2c(F)ccc(C)c2C)CC1 [Example 78, methyl 1-(N-((1S,2R)-2-(6-fluoro-2,3-dimethylphenyl)-1-(5-oxo-4,5-dihydro-1,3,4-oxadiazol-2-yl)propyl)sulfamoyl)-4-methylpiperidine-4-carboxylate] | 0.1 to 1 µM
9 | Cc1ccc(F)c([C@@H](C)[C@H](NS(=O)(=O)N2CCc3ccc(Cl)c(Cl)c3C2)c2n[nH]c(=O)o2)c1C [Example 108, 7,8-dichloro-N-((1S,2R)-2-(6-fluoro-2,3-dimethylphenyl)-1-(5-oxo-4,5-dihydro-1,3,4-oxadiazol-2-yl)propyl)-3,4-dihydroisoquinoline-2(1H)-sulfonamide] | 0.1 to 1 µM
10 | Cc1ccc(F)c([C@H](C)[C@H](NS(=O)(=O)N2CCC3(CCCC3)CC2)c2n[nH]c(=O)o2)c1C [Example 72, N-((1S,2S)-2-(6-fluoro-2,3-dimethylphenyl)-1-(5-oxo-4,5-dihydro-1,3,4-oxadiazol-2-yl)propyl)-8-azaspiro[4.5]decane-8-sulfonamide] | 1 to 10 µM
11 | Cc1ccc(F)c([C@H](C)[C@H](NS(=O)(=O)N2CCc3ccccc3C2)c2n[nH]c(=O)o2)c1C [Example 136, N-((1S,2S)-2-(6-fluoro-2,3-dimethylphenyl)-1-(5-oxo-4,5-dihydro-1,3,4-oxadiazol-2-yl)propyl)-3,4-dihydroisoquinoline-2(1H)-sulfonamide] | 1 to 10 µM
12 | Cc1ccc(F)c([C@@H](C)[C@H](NS(=O)(=O)N2C[C@H]3CCC[C@H]3C2)c2n[nH]c(=O)o2)c1C [Example 4, (3aR,6aS)-N-((1S,2R)-2-(6-Fluoro-2,3-dimethylphenyl)-1-(5-oxo-4,5-dihydro-1,3,4-oxadiazol-2-yl)propyl)hexahydrocyclopenta[c]pyrrole-2(1H)-sulfonamide] | 0.1 to 1 µM

Next, values leading:

Row | IC50 | SMILES
13 | 1 to 10 µM | Cc1ccc(F)c(C(C)[C@H](NS(=O)(=O)N2CCC(C(=O)N(C)C)CC2)c2n[nH]c(=O)o2)c1C (stereo partly drawn) [Example 64, 1-(N-((1S)-2-(6-fluoro-2,3-dimethylphenyl)-1-(5-oxo-4,5-dihydro-1,3,4-oxadiazol-2-yl)propyl)sulfamoyl)-N,N-dimethylpiperidine-4-carboxamide]
14 | 0.1 to 1 µM | Cc1ccc(F)c(C(C)[C@H](NS(=O)(=O)N2CCC(CN3CCCC3=O)CC2)c2n[nH]c(=O)o2)c1C (stereo partly drawn) [Example 65, N-((1S)-2-(6-fluoro-2,3-dimethylphenyl)-1-(5-oxo-4,5-dihydro-1,3,4-oxadiazol-2-yl)propyl)-4-((2-oxopyrrolidin-1-yl)methyl)piperidine-1-sulfonamide]
15 | 1 to 10 µM | Cc1ccc(F)c([C@H](C)[C@H](NS(=O)(=O)N2CCC(C)(C)CC2)c2n[nH]c(=O)o2)c1C [Example 114, N-((1S,2S)-2-(6-fluoro-2,3-dimethylphenyl)-1-(5-oxo-4,5-dihydro-1,3,4-oxadiazol-2-yl)propyl)-4,4-dimethylpiperidine-1-sulfonamide]
16 | 10 to 100 µM | C#CC1CCN(S(=O)(=O)N[C@H](c2n[nH]c(=O)o2)[C@@H](C)c2c(F)ccc(C)c2C)CC1 [Example 47, 4-ethynyl-N-((1S,2S)-2-(6-fluoro-2,3-dimethylphenyl)-1-(5-oxo-4,5-dihydro-1,3,4-oxadiazol-2-yl)propyl)piperidine-1-sulfonamide]
17 | 10 to 100 µM | Cc1ccc(F)c([C@H](C)[C@H](NS(=O)(=O)N2CCC(F)(F)CC2)c2n[nH]c(=O)o2)c1C [Example 2, 4,4-difluoro-N-[(1S,2S)-2-(6-fluoro-2,3-dimethylphenyl)-1-(5-oxo-4H-1,3,4-oxadiazol-2-yl)propyl]piperidine-1-sulfonamide]
18 | 10 to 100 µM | Cc1ccc(F)c([C@H](C)[C@H](NS(=O)(=O)N2CCC(CCl)CC2)c2n[nH]c(=O)o2)c1C [Example 40, 4-(chloromethyl)-N-((1S,2S)-2-(6-fluoro-2,3-dimethylphenyl)-1-(5-oxo-4,5-dihydro-1,3,4-oxadiazol-2-yl)propyl)piperidine-1-sulfonamide]
19 | 10 to 100 µM | Cc1ccc(F)c([C@@H](C)[C@H](NS(=O)(=O)N2CCC(C3CCCCC3)CC2)c2n[nH]c(=O)o2)c1C [Example 9, 4-cyclohexyl-N-((1S,2R)-2-(6-fluoro-2,3-dimethylphenyl)-1-(5-oxo-4,5-dihydro-1,3,4-oxadiazol-2-yl)propyl)piperidine-1-sulfonamide]
20 | 1 to 10 µM | C#CC1CCN(S(=O)(=O)N[C@H](c2n[nH]c(=O)o2)[C@H](C)c2c(F)ccc(C)c2C)CC1 [Example 48, 4-ethynyl-N-((1S,2R)-2-(6-fluoro-2,3-dimethylphenyl)-1-(5-oxo-4,5-dihydro-1,3,4-oxadiazol-2-yl)propyl)piperidine-1-sulfonamide]
21 | 0.1 to 1 µM | Cc1ccc(F)c([C@@H](C)[C@H](NS(=O)(=O)N2CCC(Oc3ccccn3)CC2)c2n[nH]c(=O)o2)c1C [Example 70, N-((1S,2R)-2-(6-fluoro-2,3-dimethylphenyl)-1-(5-oxo-4,5-dihydro-1,3,4-oxadiazol-2-yl)propyl)-4-(pyridin-2-yloxy)piperidine-1-sulfonamide]
22 | 1 to 10 µM | Cc1ccc(F)c(C(C)[C@H](NS(=O)(=O)N2CCC(c3ccccc3)CC2)c2n[nH]c(=O)o2)c1C (stereo partly drawn) [Example 34, N-((1S)-2-(6-fluoro-2,3-dimethylphenyl)-1-(5-oxo-4,5-dihydro-1,3,4-oxadiazol-2-yl)propyl)-4-phenylpiperidine-1-sulfonamide]
23 | 10 to 100 µM | Cc1ccc(F)c([C@H](C)[C@H](NS(=O)(=O)N2CCC(c3nncn3C)CC2)c2n[nH]c(=O)o2)c1C [Example 53, N-((1S,2S)-2-(6-fluoro-2,3-dimethylphenyl)-1-(5-oxo-4,5-dihydro-1,3,4-oxadiazol-2-yl)propyl)-4-(4-methyl-4H-1,2,4-triazol-3-yl)piperidine-1-sulfonamide]
24 | 1 to 10 µM | Cc1ccc(F)c([C@H](C)[C@H](NS(=O)(=O)N2CCC(Cl)(Cl)CC2)c2n[nH]c(=O)o2)c1C [Example 98, 4,4-dichloro-N-((1S,2S)-2-(6-fluoro-2,3-dimethylphenyl)-1-(5-oxo-4,5-dihydro-1,3,4-oxadiazol-2-yl)propyl)piperidine-1-sulfonamide]
25 | 1 to 10 µM | Cc1ccc(F)c(C(C)[C@H](NS(=O)(=O)N2CCC(C(F)(F)F)CC2)c2n[nH]c(=O)o2)c1C (stereo partly drawn) [Example 33, N-((1S)-2-(6-fluoro-2,3-dimethylphenyl)-1-(5-oxo-4,5-dihydro-1,3,4-oxadiazol-2-yl)propyl)-4-(trifluoromethyl)piperidine-1-sulfonamide]
